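In this assay, cells in 96-well plates receive the compound at five concentrations for 48 hours. Endpoints are linearly interpolated between the surrounding concentrations. GI50 marks 50% less growth.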 Activity calls are given as the source filed them. Cut-off read from the data, not from the text of the source: active = GI50 up to about 1.1 µM and inactive = higher. Some results are limits rather than exact numbers.

Usually GI50 stands for the concentration giving 50% growth inhibition.

Holding throughout (assay): DTP human tumour cell line panel, 48 h
In assay [1] the test system is SNB-75.
Assay [2] has as its system NCI/ADR-RES.
For assay [3], the system named is 786-0.
Assay [4] concerns MDA-MB-231.
Assay [5] deals with A498.
Assay [6] deals with HCC 2998.
Assay [7] has as its system NCI-H23.
Assay [8] relates to SK-MEL-2.
Assay [9] deals with M14.
Assay [10] concerns OVCAR-5.
The subject of assay [11] is HCT-15.
In assay [12] the test system is A549.
The test system of assay [13] is OVCAR-8.
In assay [14] the test system is K562.
Assay [15] deals with HOP-92.
The subject of assay [16] is SNB-19.
The subject of assay [17] is SK-MEL-28.
The subject of assay [18] is UACC-257.
Assay [19] has as its system SF-295.
Assay [20] deals with MDA-N.

Consider `CC(C)=C1C(=O)C[C@]2(C)C[C@H]3/C(=C(/C)CCC12)CC[C@@]3(C)O` (stereo not given in full), for which the GI50 in [1] is 19.1 µM (inactive); in [2] it was > 50 µM (inactive); in assay [3], > 50 µM (inactive); in assay [4], > 50 µM (inactive); in assay [5] it was > 50 µM (inactive); in assay [6], > 50 µM (inactive). Moreover, the GI50 in assay [7] is > 50 µM (inactive); in assay [8], > 50 µM (inactive); in assay [9] it was > 50 µM (inactive); in assay [10] it was > 50 µM (inactive); in assay [11] it was 40.1 µM; in assay [12], > 50 µM (inactive). Besides, the GI50 in assay [13] is > 50 µM (inactive); in [14], 22.2 µM (inactive); in assay [15], > 50 µM (inactive); in [16] it was > 50 µM (inactive); in [17], > 50 µM (inactive); in assay [18], > 50 µM (inactive). Further, the GI50 in assay [19] is > 50 µM (inactive).
As for `C=CCOCn1ccc(NC(=O)c2ccccc2)nc1=O`, the GI50 in assay [1], in assay [3], in [4], in assay [5], in assay [6] and in assay [20] was > 100 µM (inactive) each time. The GI50 in assay [7] was > 100 µM (inactive); in assay [9] it was > 100 µM (inactive); in assay [11] it was more than 100 µM; in assay [12], > 100 µM (inactive); in assay [13] it was > 100 µM (inactive); in assay [14] it was > 100 µM (inactive). Besides, the GI50 in assay [16], in [17], in assay [18] and in assay [19] was > 100 µM (inactive) throughout.
Turning to `CS(=O)(=O)c1ccc(C(=O)O[C@@H]2C(=O)N3CC[C@H]4OC(O)[C@@H]2[C@H]43)cc1` (stereo not given in full), the GI50 in assay [1] is 58.1 µM (inactive); in assay [2] it was > 100 µM (inactive); in assay [3], 60.7 µM (inactive); in assay [4], > 100 µM (inactive); in assay [5], > 100 µM (inactive); in [6], > 100 µM (inactive). In addition, the GI50 in assay [7] was > 100 µM (inactive); in assay [8] it was > 100 µM (inactive); in assay [9] it was > 100 µM (inactive); in assay [10] it was > 100 µM (inactive); in assay [11] it was more than 100 µM; in assay [12] it was > 100 µM (inactive). In addition, the GI50 in assay [13], in assay [14], in [16], in assay [17], in assay [18] and in assay [19] was > 100 µM (inactive) throughout.
With `CCOC(=O)CCC(C(=O)OCC)n1nnc2ccc(Nc3c(C)[n+]([O-])c4ccc(Cl)cc4[n+]3[O-])cc21` (stereo not given), the GI50 was 31.4 µM (inactive) in assay [1]; 28.3 µM (inactive) in [2]; 44 µM (inactive) in assay [3]; > 100 µM (inactive) in [5]; 54.7 µM (inactive) in assay [20]; 33.5 µM (inactive) in assay [7]. In addition, the GI50 in assay [8] was 30.9 µM (inactive); in assay [9], 37.5 µM (inactive); in assay [10], 54.1 µM (inactive); in assay [11], 27.9 µM; in [12], 57.3 µM (inactive); in [13], 39.2 µM (inactive). Besides, the GI50 in assay [14] is 45.8 µM (inactive); in [15] it was 23.8 µM (inactive); in assay [16], > 100 µM (inactive); in assay [18] it was 19.2 µM (inactive); in assay [19], 27.8 µM (inactive).
Consider `CCCCCCCCCCCC(=O)OCC1OC(n2cc(F)c(=O)[nH]c2=O)C(N)C(O)C1O` (stereo not given), for which the GI50 is > 100 µM (inactive) in assay [1]; > 100 µM (inactive) in assay [3]; > 100 µM (inactive) in assay [5]; > 100 µM (inactive) in assay [6]; 84.7 µM (inactive) in assay [7]; > 100 µM (inactive) in [8]. In addition, the GI50 is > 100 µM (inactive) in assay [9]; 11.5 µM (inactive) in assay [10]; more than 100 µM in [11]; > 100 µM (inactive) in assay [12]; 73.5 µM (inactive) in [13]; 32.2 µM (inactive) in assay [14]. Further, the GI50 is > 100 µM (inactive) in assay [15]; 57.9 µM (inactive) in assay [16]; > 100 µM (inactive) in [17]; > 100 µM (inactive) in [18]; > 100 µM (inactive) in [19].
Turning to `Cc1ccccc1C1CC(=O)CC(c2ccccc2C)C12C(=O)NC(=O)NC2=O` (stereo not given), the GI50 in assay [1], in assay [2], in assay [3], in [4], in [5] and in assay [6] was > 100 µM (inactive) each time. Further, the GI50 in [7] was > 100 µM (inactive); in assay [8], > 100 µM (inactive); in assay [9], > 100 µM (inactive); in assay [10], > 100 µM (inactive); in assay [11] it was more than 100 µM; in [12], > 100 µM (inactive). Besides, the GI50 in [13] is > 100 µM (inactive); in assay [14], > 100 µM (inactive); in assay [15], 19 µM (inactive); in [16], > 100 µM (inactive); in assay [17] it was > 100 µM (inactive); in [18], > 100 µM (inactive). The GI50 in assay [19] was > 100 µM (inactive).
`COc1cc(NC(C)=O)ccc1C(=O)N/N=C/c1ccco1`: the GI50 in [1], in assay [2], in [3], in assay [5], in [20] and in [7] was > 100 µM (inactive) each time. In addition, the GI50 in assay [8] is > 100 µM (inactive); in assay [9] it was > 100 µM (inactive); in assay [10], > 100 µM (inactive); in assay [11], more than 100 µM; in assay [12], > 100 µM (inactive); in assay [13], > 100 µM (inactive). In addition, the GI50 in assay [14], in assay [15], in assay [16], in assay [17] and in assay [19] was > 100 µM (inactive) in each case.
For the compound `c1cc2c(cnc3cscc32)s1`, the GI50 was 57.7 µM (inactive) in assay [1]; > 100 µM (inactive) in assay [3]; > 100 µM (inactive) in assay [5]; > 100 µM (inactive) in assay [6]; > 100 µM (inactive) in assay [7]; > 100 µM (inactive) in assay [8]. For the same compound, the GI50 is > 100 µM (inactive) in [9]; > 100 µM (inactive) in [10]; more than 100 µM in [11]; > 100 µM (inactive) in assay [12]; > 100 µM (inactive) in assay [13]; > 100 µM (inactive) in assay [14]. The GI50 in assay [15], in [16], in assay [17], in [18] and in assay [19] was > 100 µM (inactive) each time.

Source of the values: ChEMBL document CHEMBL1201862, “PubChem BioAssay data set” (2004).
